Assay results published in patent US7192982B2, “Modulators of peroxisome proliferator activated receptors” (Ligand Pharmaceuticals, Inc., priority 2001, dated 2007).

Legend:
[1] = system: mice, transgenic for human apoAI; test: Evaluation of triglyceride and cholesterol levels in HuapoAI transgenic mice; type: in vivo; conditions: hu apoAI transgenic mice
Protocol: Five to six week old male mice, transgenic for human apoAI [C57B1/6-tgn(apoa1)1rub, Jackson Laboratory, Bar Harbor, Me.] were housed five per cage (10″×20″×8″ with aspen chip bedding) with food (Purina 5001) and water available at all times. After an acclimation period of 2 weeks, animals were individually identified by ear notches, weighed and assigned to groups based on body weight. Beginning the following morning, mice were dosed daily by oral gavage for 7 days using a 20 gauge, 1½″ curved disposable feeding needle. Treatments were test compounds (30 mg/kg), a positive control (fenofibrate, 100 mg/kg) or vehicle [1% carboxymethylcellulose (w/v)/0.25% Tween80 (w/v); 0.2 ml/mouse]. Prior to termination on day 7, mice were weighed and dosed. Three hours after dosing, animals were anesthetized by inhalation of isoflurane (2–4%) and blood obtained via cardiac puncture (0.7–1.0 ml). Whole blood was transferred to serum separator tubes (Vacutainer SST), chilled on ice and permitted to clot. Serum, was obtained after centrifugation at 4° C. and frozen until analysis for triglycerides, total cholesterol, compound levels and serum lipoprotein profiled by fast protein liquid, chromatography (FPLC) coupled to an inline detection system. After sacrifice by cervical dislocation, the liver, heart and epididymal fat pads were excised and weighed.
Glucose was measured colorimetrically by using commercially purchased reagents (Sigma #315-500). According to the manufacturers, the procedures were modified from published work (McGowan et al. Clin Chem, 20:470–5 (1974) and Keston, A. Specific colorimetric enzymatic analytical reagents for glucose. Abstract of papers 129th Meeting ACS, 31C (1956).); and depend on the release of a mole of hydrogen peroxide for each mole of analyte coupled with a color reaction first described by Trinder (Trinder, P. Ann Clin Biochem, 6:24 (1969)). The absorbance of the dye produced was linearly related to the analyte in the sample. The assays was further modified for use in a 96 well format. Standards (Sigma #339-11, Sigma #16-11, and Sigma #CC0534 for glucose, triglycerides and total cholesterol, respectively), quality control plasma (Sigma # A2034), and samples-(2 or 5 μl well) were measured in duplicate using 200 μl of reagent. An additional aliquot of sample, pipetted to a third well and diluted in 200 μl water, provided ai blank for each specimen. Plates were incubated at room temperature (18, 15, and 10 minutes for glucose, triglycerides and total cholesterol, respectively) on a plate shaker and absorbance read at 500 nm (glucose and total cholesterol) or 540 nm (triglycerides) on a plate reader. Sample absorbance was compared to a standard curve (100–800, 10–500, and 100–400 mg/dl for glucose, triglycerides and total cholesterol, respectively). Values for the quality control sample wee consistently within the expected range and the coefficient of variation for samples is below 10%. All samples from an experiment were assayed at the same time to minimize inter-assay variability.
Serum lipoproteins were separated and cholesterol was quantitated with an in-line detection system. Sample was applied to a Superose® 6 HR 10/30 size exclusion column (Amersham Pharmacia Biotech) and eluted with phosphate buffered saline-EDTA at 0.5 ml/min. Cholesterol reagent (Roche Diagnostics Chol/HP 704036) at 0.16 ml/min was mixed with the column effluent through a T-connection, and the mixture was passed through a 15 m×0.5 mm id knitted tubing reactor immersed in a 37° C. water bath. The colored product produced in the presence of cholesterol was monitored in the flow stream at 505 nm, and the analog voltage from the monitor was converted to a digital signal for collection and analysis. The change in voltage corresponding to change in cholesterol concentration was plotted against time, and the area under the curve corresponding to the elution of VLDL, LDL and HDL was calculated (Perkin Elmer Turbochrome software).

| melting point | Compound | mean percent increase of HDLc ([1]; FPLC of pooled sera, 100 mg/kg oral daily for 7 days, versus vehicle) | high-density lipoprotein cholesterol (HDLc) peak area ([1]; FPLC of pooled sera, 100 mg/kg oral daily for 7 days, vehicle 47 v-sec to 62 v-sec) | mean elevation of total serum cholesterol ([1]; 100 mg/kg oral gavage daily for 7 days, versus vehicle) | average total serum cholesterol values ([1]; 100 mg/kg oral gavage daily for 7 days, vehicle about 140 to 180 mg/dl) | mean reduction of triglycerides ([1]; serum, 100 mg/kg oral gavage daily for 7 days, versus vehicle) | average triglycerides values ([1]; serum, 100 mg/kg oral gavage daily for 7 days, vehicle about 60 to 80 mg/dl) |
| --- | --- | --- | --- | --- | --- | --- | --- |
| 111 to 112 °C | CO[C@@H](Cc1ccc(C#CCOc2ccc(-c3ccccc3)cc2)cc1)C(=O)O [Example 1, (2S)-3-{4-[3-(Biphenyl-4-yloxy)-prop-1-ynyl]-phenyl}-2-methoxy-propionic acid] |  |  |  |  |  |  |
|  | CC(C)OC(=O)C(C)(C)Oc1ccc(C(=O)c2ccc(Cl)cc2)cc1 [fenofibrate] | 48% | 68–96 v-sec | 41% | 190 to 280 mg/dL | 37% | 33 to 58 mg/dL |
